Results: PubChem BioAssay (NCI)
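96-well plates; 48 h exposure; 5 concentrations. Endpoints by linear interpolation between flanking doses. Not reached: highest tested concentration assigned. TGI denotes the concentration required for complete inhibition of growth.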

Tests used:
Experiment in all cases: inhibition of tumour cell growth, NCI panel, 48 h
[1] = test system: 786-0 renal
[2] = test system: A549 NSCLC
[3] = test system: ACHN renal
[4] = test system: CAKI-1 renal
[5] = test system: CCRF-CEM leukemia
[6] = test system: COLO 205 colon
[7] = test system: DLD-1 colon
[8] = test system: DMS 114 small cell lung
[9] = test system: DMS 273 small cell lung
[10] = test system: EKVX NSCLC
[11] = test system: HCC-2998 colon
[12] = test system: HCT-116 colon
[13] = test system: HOP-62 NSCLC
[14] = test system: HOP-92 NSCLC
[15] = test system: HT29 colon
[16] = test system: IGROV1 ovarian
[17] = test system: K-562 leukemia
[18] = test system: KM12 colon
[19] = test system: LOX IMVI melanoma
[20] = test system: LXFL 529 NSCLC
[21] = test system: M14 melanoma
[22] = test system: MALME-3M melanoma
[23] = test system: MOLT-4 leukemia
[24] = test system: NCI-H226 lung
[25] = test system: NCI-H23 lung
[26] = test system: NCI-H460 lung
[27] = test system: NCI-H522 lung
[28] = test system: OVCAR-3 ovarian
[29] = test system: OVCAR-4 ovarian
[30] = test system: OVCAR-5 ovarian
[31] = test system: OVCAR-8 ovarian
[32] = test system: RXF 393 renal
[33] = test system: SF-268 CNS
[34] = test system: SF-295 CNS
[35] = test system: SF-539 CNS
[36] = test system: SK-MEL-2 melanoma
[37] = test system: SK-MEL-28 melanoma
[38] = test system: SK-MEL-5 melanoma
[39] = test system: SK-OV-3 ovarian
[40] = test system: SN12C renal
[41] = test system: SNB-19 CNS
[42] = test system: SNB-75 CNS
[43] = test system: SNB-78 CNS
[44] = test system: SR leukemia
[45] = test system: SW-620 colon
[46] = test system: TK-10 renal
[47] = test system: U251 CNS
[48] = test system: UACC-62 melanoma
[49] = test system: UO-31 renal
[50] = test system: XF 498 CNS
[51] = test system: A498 renal
[52] = test system: HCT-15 colon
[53] = test system: HL-60(TB) leukemia
[54] = test system: KM20L2 colon
[55] = test system: M19-MEL melanoma
[56] = test system: RPMI-8226 leukemia
[57] = test system: UACC-257 melanoma

Measured: TGI

O=C(Nc1ccccc1-c1nn(CO)c(=S)n(CO)c1=O)C(F)(F)F
not listed: [51] | [52] | [53] | [54] | [55] | [56] | [57]
> 100 µM: all other assays above

Cn1c(=O)c2nc(N3CCOCC3)cnc2n(C)c1=O
not listed: [1] | [19] | [24] | [32]
> 100 µM: all other assays above
